Reference: publication PMC7424068, “Design, Synthesis, and Biological Evaluation of Novel Thiazolidinone-Containing Quinoxaline-1,4-di-N-oxides as Antimycobacterial and Antifungal Agents” (Frontiers in Chemistry, 2020)
In brackets after ≈: the same amount, converted by molar mass. Like-named read-outs stand apart in the source and are kept apart here.

What was measured:
[1] = test system: M. tuberculosis (Mtb) strain H37Rv; set-up: method as in Ortega et al., 2001; Vicente et al., 2009; conditions: ref Ortega et al., 2001, Vicente et al., 2009; cited from earlier work
Mtb H37Rv (ATCC27294) = test: Antimycobacterial activity, microplate Alamar blue assay (MABA); type: cell-based, Mycobacterium tuberculosis; conditions: for antimycobacterial activity (in words): Mtb strain H37Rv; for MIC: Mycobacterium tuberculosis, Mtb H37Rv
C. albicans (ATCC90028) = test: Antifungal activity, broth microdilution; type: cell-based, Candida albicans
Method: (§1) All synthesized compounds and the positive control drugs amphotericin B and ketoconazole were tested for their in vitro antifungal activity. Antifungal activity was evaluated against four fungi, C. albicans (ATCC90028), C. tropicalis (ATCC7349), A. fumigatus (3.5352), and C. neoformans (2.3201), by broth microdilution according to the protocols from the NCCLS (Jiang et al., [2014]). Briefly, all tested compounds were dissolved in DMSO, and the solutions were diluted with fresh broth medium. All of the fungi-seeded broth (1 × 10^5 colony-forming units [CFU]/mL) were prepared in RPMI 1640 medium and added into the serially diluted drug solution. The tubes were incubated at 28°C, and the MIC (μg/mL) was recorded 72–96 h post-incubation. Broth control (without fungi), growth controls (with fungi and without drug), solvent (DMSO) control, and drug control for both test drugs and standard drugs were set under identical conditions. The minimum drug concentration in the tubes in which no apparent growth of the organism was observed represented the MIC of the compounds.

VERO cell line = test: Cytotoxicity MTT assay; type: cell-based; conditions: Chlorocebus sabaeus, cytotoxicity in VERO cells, 72 h
Method: VERO cells (2 × 10^4 cells) were seeded into 96-well plates and incubated for 12 h. Serial dilutions of the compounds were mixed with the cell suspension in the plates. Both treated cells and blank and solvent controls were incubated for 72 h, followed by incubation with MTT (0.5 mg/mL) for another 4 h. The microplates were measured at 570 nm using a multimode reader (Infinite M200, Tecan). The percentage of viable cells was calculated as the mean with respect to the controls set to 100%. Triplicate wells were analyzed for each concentration. IC50 was defined as the concentration that reduced the viable cells by 50% compared to the untreated control cells. It was considered significant when the SI was more than 10.

[2] = test system: Candida albicans, Candida tropicalis, Aspergillus fumigatus, and Cryptococcus neoformans; test: Antifungal activity, broth microdilution, stated for the four fungi together; type: cell-based; conditions: read-out: MIC (antifungal, over the four fungi)
Method: as §1

C. neoformans (2.3201) = test: Antifungal activity, broth microdilution; type: cell-based; conditions: Cryptococcus neoformans
Method: as §1

C. tropicalis (ATCC7349) = test: Antifungal activity, broth microdilution; type: cell-based; conditions: Candida tropicalis
Method: as §1

A. fumigatus (3.5352) = test: Antifungal activity, broth microdilution; type: cell-based; conditions: Aspergillus fumigatus
Method: as §1

[3] = test system: TB-infected macrophage model; test: Macrophage assay (TB-infected macrophage model); type: cell-based, Mycobacterium tuberculosis; conditions: for EC90: Mycobacterium tuberculosis, Macrophage, 168 h, concentration causing 90% reduction in residual mycobacterial growth after 7 days; for EC99: concentration causing 99% reduction in residual mycobacterial growth after 7 days
[4] = repeated in Table 5 for the 3D-QSAR models, read-out: MIC
[5] = experimental pMIC, Table 5, read-out: pMIC exp (converted)
[6] = Candida albicans ATCC 90028, read-out: MIC
[7] = C. albicans, C. tropicalis, A. fumigatus, C. neoformans together
[8] = C. neoformans 2.3201, read-out: MIC
[9] = C. tropicalis ATCC 7349, read-out: MIC
[10] = A. fumigatus 3.5352, read-out: MIC

SMILES	MIC [1] [µg/mL]	antimycobacterial activity (in words) (Mtb H37Rv (ATCC27294))	MIC (Mtb H37Rv (ATCC27294); [4]) [µg/mL]	MIC (Mtb H37Rv (ATCC27294); [5]) [µM]	MIC (C. albicans (ATCC90028); [6]) [µg/mL]	IC50 (VERO cell line) [µg/mL]	melting point [°C]	MIC [2, 7] [µg/mL]	MIC (C. neoformans (2.3201); [8]) [µg/mL]	MIC (C. tropicalis (ATCC7349); [9]) [µg/mL]	MIC (A. fumigatus (3.5352); [10]) [µg/mL]	EC90 [3] [µg/mL]	EC99 [3] [µg/mL]	MIC (Mtb H37Rv (ATCC27294); MABA assay, read-out: MIC) [µg/mL]	MIC (C. albicans (ATCC90028); Candida albicans) [µg/mL]	MIC [2] [µg/mL]	MIC (C. neoformans (2.3201)) [µg/mL]	MIC (C. tropicalis (ATCC7349)) [µg/mL]	MIC (A. fumigatus (3.5352)) [µg/mL]
Cc1ccc2c(c1)[n+]([O-])c(C#N)c(-c1ccc(F)cc1)[n+]2[O-] [7-methyl-3-(4′-fluoro)phenylquinoxaline-2-carbonitrile-1,4-di-N-oxide]	< 0.2	–	–	–	–	–	–	–	–	–	–	–	–	–	–	–	–	–	–
O=C1CSC(c2c[n+]([O-])c3ccc(Cl)cc3[n+]2[O-])N1c1ccc(Cl)cc1 (stereo not shown) [2z, 7-Cl-2-(3′-P-chlorophenyl-4′(5H)-thiazolidinone)-quinoxaline-1,4-di-N-oxide]	–	good antimycobacterial activity	1.56	3.85	4 (≈ 9.8 µM)	94.6 (≈ 232 µM)	252 to 255	2 to 4 (≈ 4.9 to 9.8 µM)	4 (≈ 9.8 µM)	4 (≈ 9.8 µM)	4 (≈ 9.8 µM)	0.92 (≈ 2.25 µM)	3.93	–	–	–	–	–	–
C[C@@H]1[C@H](O)[C@@H](C)/C=C/C=C/C=C/C=C/C=C/C=C/C=C/[C@H](O[C@@H]2O[C@H](C)[C@@H](O)[C@H](N)[C@@H]2O)C[C@@H]2O[C@](O)(C[C@@H](O)C[C@@H](O)[C@H](O)CC[C@@H](O)C[C@@H](O)CC(=O)O[C@H]1C)C[C@H](O)[C@H]2C(=O)O [AMB, Amphotericin b, reference compound]	–	–	–	–	1 (≈ 1.08 µM)	–	–	0.25 to 2 (≈ 0.271 to 2.16 µM)	0.5 (≈ 0.541 µM)	2 (≈ 2.16 µM)	0.5 (≈ 0.541 µM)	–	–	–	–	–	–	–	–
Cc1ccc(N2C(=O)CSC2c2c[n+]([O-])c3ccc(Cl)cc3[n+]2[O-])cc1 (stereo not shown) [2w, 7-Cl-2-(3′-P-methylphenyl-4′(5H)-thiazolidinone)-quinoxaline-1,4-di-N-oxide]	–	–	6.25	16.1	8 (≈ 20.6 µM)	125 (≈ 323 µM)	250 to 252	–	4 (≈ 10.3 µM)	4 (≈ 10.3 µM)	8 (≈ 20.6 µM)	–	–	6.25	–	–	–	–	–
O=C1CSC(c2c[n+]([O-])c3ccccc3[n+]2[O-])N1c1ccc(F)cc1 (stereo not shown) [2d, 2-(3′-P-fluorophenyl-4′(5H)-thiazolidinone)-quinoxaline-1,4-di-N-oxide]	–	good antimycobacterial activity	3.13	8.77	16 (≈ 44.8 µM)	123 (≈ 344 µM)	240 to 242	–	8 (≈ 22.4 µM)	8 (≈ 22.4 µM)	32 (≈ 89.5 µM)	–	–	3.13	–	–	–	–	–
O=C1CSC(c2c[n+]([O-])c3ccc(F)cc3[n+]2[O-])N1c1ccc(Cl)cc1 (stereo not shown) [2u, 7-F-2-(3′-P-chlorophenyl-4′(5H)-thiazolidinone)-quinoxaline-1,4-di-N-oxide]	–	good antimycobacterial activity	1.56	3.99	4 (≈ 10.2 µM)	91.2 (≈ 233 µM)	249 to 252	2 to 4 (≈ 5.1 to 10.2 µM)	4 (≈ 10.2 µM)	4 (≈ 10.2 µM)	2 (≈ 5.1 µM)	0.84 (≈ 2.14 µM)	3.27	–	–	–	–	–	–
O=C1CSC(c2c[n+]([O-])c3ccc(Cl)cc3[n+]2[O-])N1c1ccc(F)cc1 (stereo not shown) [2y, 7-Cl-2-(3′-P-fluorophenyl-4′(5H)-thiazolidinone)-quinoxaline-1,4-di-N-oxide]	–	good antimycobacterial activity	1.56	3.99	2 (≈ 5.1 µM)	107 (≈ 273 µM)	251 to 253	2 to 4 (≈ 5.1 to 10.2 µM)	2 (≈ 5.1 µM)	4 (≈ 10.2 µM)	4 (≈ 10.2 µM)	1.33 (≈ 3.39 µM)	4.58	–	–	–	–	–	–
O=C1CSC(c2c[n+]([O-])c3ccc(F)cc3[n+]2[O-])N1c1ccc(F)cc1 (stereo not shown) [2t, 7-F-2-(3′-P-fluorophenyl-4′(5H)-thiazolidinone)-quinoxaline-1,4-di-N-oxide]	–	good antimycobacterial activity	1.56	4.16	4 (≈ 10.7 µM)	101 (≈ 269 µM)	250 to 253	2 to 4 (≈ 5.33 to 10.7 µM)	4 (≈ 10.7 µM)	2 (≈ 5.33 µM)	4 (≈ 10.7 µM)	1.66 (≈ 4.42 µM)	5.25	1.56	–	–	–	–	–
CC(=O)N1CCN(c2ccc(OCC3COC(Cn4ccnc4)(c4ccc(Cl)cc4Cl)O3)cc2)CC1 (stereo not shown) [KCZ, Ketoconazole, reference compound]	–	–	–	–	–	–	–	–	–	–	–	–	–	–	0.25 (≈ 0.47 µM)	0.25 to 2 (≈ 0.47 to 3.76 µM)	0.25 (≈ 0.47 µM)	0.5 (≈ 0.941 µM)	0.5 (≈ 0.941 µM)
